Source: US5439884A, “Method of controlling fertilization using bombesin or its agonist” (Oregon Regional Primate Research Center, priority 1992, dated 1995)
Where a SMILES comes first, the peptide text is derived from it. [ ]: non-standard residue; d: D form. dPhe(F5) = N[C@H](Cc1c(F)c(F)c(F)c(F)c1F)C(=O)O

How the values were obtained:
sperm [1] = experiment: acrosome reaction, analogs alone or in the presence of GRP (sperm species not stated); format: cell-based; details: for % Acrosome Reacted, Analog + GRP: analog 50 nM + GRP 2 nM; for % Acrosome Reacted, Analog: analog alone, final concentration 50 nM, blank control 6.000 ± .707
Experimental: (§1) The acrosome reaction, which is necessary for sperm to fertilize the egg, was induced by the following methods.
(§2) For monkeys, sperm was collected, washed twice in balanced salts, resuspended in lactate/bicarbonate and dibutyryl cAMP, and then incubated for 60 minutes. […] See Wolf, D. P. et al. Mol. Reprod. Dev. 27:261-280 (1990); Lanzendorf, S. E. et al. Mol. Reprod. Dev. 25:61-66 (1990); and Wolf D. P. et al. Biol. Reprod. 41:335-346 (1989). All of these three publications are hereby incorporated by reference.
(§3) To measure the effects of bombesin on the acrosome reaction, capacitation was conducted in the presence or absence of bombesin. After incubation, samples of sperm were removed to determine the percentage of sperm which had undergone the acrosome reaction as measured with an acrosome specific monoclonal antibody and FITC fluorescence [see Wolf, D. P. Am. J. Reprod. Immunol. 20:106-113 (1989), which is hereby incorporated by reference].
[…] bombesin analogs, BIM 26136, BIM 26187, BIM 26189, BIM 26224, BIM 26226, BIM 26244, and BIM 26028, were used to test their effect on the acrosome reaction, either alone or in the presence GRP, in a manner described above.

human sperm = experiment: acrosome reaction in human sperm; format: cell-based; details: for stimulation of the spontaneous acrosome reaction: humans
Experimental: as §1, §3

monkey sperm = experiment: acrosome reaction in monkey sperm (acrosome specific monoclonal antibody, FITC fluorescence); format: cell-based, monkeys (rhesus); details: for stimulation of the spontaneous acrosome reaction: monkeys (rhesus)
Experimental: as §1, §2, §3

new GRP receptor = experiment: response of new GRP receptor in transfected cells and Xenopus oocytes; format: cell-based, rat
Description: A new GRP receptor, which is expressed in very high levels in rat sperm, has recently been cloned. cDNA encoding this receptor was used to determine if this new GRP receptor is expressed in primate sperm.

sperm [2] = details: high doses, 1 μg/ml; cited from earlier work

H-D-Phe-Gln-Trp-Ala-Val-Gly-His-Leu-Cpa-NH2 [BIM 26169]
% Acrosome Reacted, Analog + GRP (sperm [1]): 6.000 ± .408% | % Acrosome Reacted, Analog (sperm [1]): 10.000 ± .913%

CCCC[C@H](NC(=O)[C@H](Cc1ccccc1)NC(=O)[C@H](Cc1c[nH]cn1)NC(=O)CNC(=O)[C@@H](NC(=O)[C@H](C)NC(=O)[C@H](Cc1c[nH]c2ccccc12)NC(=O)[C@H](CCC(N)=O)NC(=O)[C@H](N)Cc1ccccc1)C(C)C)C(N)=O [BIM 26224, H-D-Phe-Gln-Trp-Ala-Val-Gly-His-Phe-Nle-NH2]
% Acrosome Reacted, Analog + GRP (sperm [1]): 6.000 ± 1.000% | % Acrosome Reacted, Analog (sperm [1]): 9.000 ± 1.581%

COC(=O)[C@H](CC(C)C)NC(=O)[C@H](Cc1c[nH]cn1)NC(=O)[C@@H](C)NC(=O)[C@@H](NC(=O)[C@H](C)NC(=O)[C@H](Cc1c[nH]c2ccccc12)NC(=O)[C@H](CCC(N)=O)NC(=O)[C@H](N)Cc1c(F)c(F)c(F)c(F)c1F)C(C)C [BIM 26226, H-D-F5 -Phe-Gln-Trp-Ala-Val-D-Ala-His-Leu-OCH3] (H-[dPhe(F5)]QWAV[dA]HL-OMe)
% Acrosome Reacted, Analog + GRP (sperm [1]): 12.000 ± .707% | % Acrosome Reacted, Analog (sperm [1]): 9.000 ± 1.780%

CSCC[C@H](NC(=O)[C@H](CC(C)C)NC(=O)[C@H](Cc1cnc[nH]1)NC(=O)CNC(=O)[C@@H](NC(=O)[C@H](C)NC(=O)[C@H](Cc1c[nH]c2ccccc12)NC(=O)[C@H](CCC(N)=O)NC(=O)[C@H](CC(N)=O)NC(=O)CNC(=O)[C@H](CC(C)C)NC(=O)[C@H](CCCN=C(N)N)NC(=O)[C@H](CCC(N)=O)NC(=O)[C@@H]1CCC(=O)N1)C(C)C)C(N)=O [bombesin, H-pGlu-Gln-Arg-Leu-Gly-Asn-Gln-Trp-Ala-Val-Gly-His-Leu-Met-NH2]
increase in the acrosome reaction (human sperm; human sperm, concentrations as low as 5 nM bombesin, FIG. 2): 2 fold | stimulation of the spontaneous acrosome reaction (human sperm): stimulate | increase in the acrosome reaction (monkey sperm; monkey sperm, concentrations as low as 5 nM bombesin, FIG. 2): 2 fold | stimulation of the spontaneous acrosome reaction (monkey sperm): stimulate

Neuromedin B
reaction of the new receptor to the peptide (new GRP receptor): reacted only weakly

H-D-Nal-Gln-Trp-Ala-Val-Gly-His-Leu-.psi.(CH2 -NH)-Phe-NH2 [BIM 26136]
rank in inducing the acrosome reaction among the analogs tested (sperm [1]; Table 1, 50 nM): most potent | % Acrosome Reacted, Analog + GRP (sperm [1]): 10.000 ± 1.225% | % Acrosome Reacted, Analog (sperm [1]): 11.000 ± .408%

CC(=O)[C@H]1CC[C@H]2[C@@H]3CCC4=CC(=O)CC[C@]4(C)[C@H]3CC[C@]12C [progesterone]
induction of the acrosome reaction (sperm [2]): induce the acrosome reaction

H-Ala-Pro-Val-Ser-Val-Gly-Gly-Gly-Thr-Val-Leu-Ala-Lys-Met-Tyr-Pro-Arg-Gly-Asn-His-Trp-Ala-Val-Gly-His-Leu-Met-NH2 (H-APVSVGGGTVLAKMYPRGNHWAVGHLM-NH2) [GRP]
stimulation of the spontaneous acrosome reaction (human sperm): stimulate | concentration at which active in stimulating the acrosome reaction (sperm [1]): 1 nM | % Acrosome Reacted, GRP without analog (blank control line, GRP column) (sperm [1]; GRP final concentration 2 nM, no analog): 18.000 ± 3.629% | stimulation of the spontaneous acrosome reaction (monkey sperm): stimulate | reaction of the new receptor to the peptide (new GRP receptor): reacted only weakly

CC(C)C[C@H](NC(=O)[C@H](CC(C)C)NC(=O)[C@H](Cc1c[nH]cn1)NC(=O)CNC(=O)[C@@H](NC(=O)[C@H](C)NC(=O)[C@H](Cc1c[nH]c2ccccc12)NC(=O)[C@H](CCC(N)=O)NC(=O)[C@H](N)Cc1ccccc1)C(C)C)C(N)=O [BIM 26137, H-D-Phe-Gln-Trp-Ala-Val-Gly-His-Leu-Leu-NH2]
% Acrosome Reacted, Analog + GRP (sperm [1]): 7.000 ± .707% | % Acrosome Reacted, Analog (sperm [1]): 7.000 ± .707%
